Measurements reported in US20230134958A1, “NEW MEDICAL TREATMENT” (Umecrine Cognition AB, priority 2021, published 2023).

Tested on: cirrhotic patients defined as Child-Pugh class A and B with manifestation of CHE
Assay: Continuous Reaction Time (CRT) test, clinical Phase II study part D (EudraCT 2016-003651-30), 21 days extended treatment
Assay type: in vivo, human
Method: Protocol EudraCT 2016-003651-30 was a randomized, double-blinded, placebo-controlled study consisting of four parts, where part D (partly) of the study is relevant to the herein disclosed and claimed invention. The aim of the study was to assess the potential efficacy (Part D) of the compound golexanolone in patients with cirrhosis. The study was performed at sites in Sweden, Denmark, Ukraine, Russia, Hungary and Poland.
Extended treatment (21 consecutive days) in cirrhotic patients defined as Child-Pugh class A and B with manifestation of CHE, was performed.
An objective of study part D (phase IIa, extended treatment) was to assess preliminary efficacy of treatment with the compound golexanolone on cognitive function, as measured by the Continuous Reaction time (CRT) test.
In order to be eligible for the study, patients required evidence of cognitive impairment defined as a CRT index <1.9 at screening. CRT was re-assessed at baseline, prior to dosing but was not required to be abnormal at baseline.
Exclusion criteria included uncontrolled infection, active gastrointestinal bleeding, a history of bleeding requiring transfusion, transjugular intrahepatic portosystemic shunt placement within the past 90 days, hepatorenal syndrome, uncontrolled ascites, current malignancy, evidence of overt HE at screening or within 7 days of screening, use of psychoactive drugs, or any other psychiatric or medical comorbidity judged by the Investigator to preclude safe participation and/or confound the interpretation of study results.
Alcohol consumption was not allowed within two days prior to screening or for 24 hours prior to all study visits. Moreover, subjects were required to have a negative alcohol breath test at screening and subsequent study visits, including Part D study days 10 and 21 at which cognitive function was measured.
The Investigational Medicinal Product (IMP) is self-administered by the patient at home, except for the study days of visiting the clinic (Days 1, 10 and 21), when the IMP is administered under surveillance. Assistance of a dedicated care-giver or family members/friends is mandatory during the extended treatment period. Intake of study medication, changes in concomitant medications and medical events between visits are registered in a diary on a daily basis by the patient/care-giver and a care-giver diary is completed. Efficacy parameters are evaluated. If assessed as required for practical reasons, a patient can be confined to the research clinic from the evening before dosing on Day 21. A follow-up visit is performed 5-10 days after (last) IMP administration. Change in CRT index from baseline (day 1) to 10 and 21 days respectively after start of treatment, as
compared to placebo, is evaluated.
The Investigational Medical Product (clinical formulation) is supplied as a lipid semi-solid filled in a gelatine capsule for oral administration. For the present study, each capsule contains 10 mg golexanolone. The excipient is a mixture of mono -and diglycerides of capric/caprylic glycerides (Imwitor® 742), which is of pharmacopoeia quality.
The Investigational Medical Product golexanolone is administered every twelve (12) hours (i. e. twice daily) for 21 consecutive days.
10 mg golexanolone BID (i.e. 20 mg per day) in combination with Standard of Care therapy; or 40 mg golexanolone BID (i.e. 80 mg per day) in combination with Standard of Care therapy; or 80 mg golexanolone BID (i.e. 160 mg per day) in combination with Standard of Care therapy; or placebo BID in combination with Standard of Care therapy.
Standard of Care therapy may be any one of an oral antioxidant, fluvoxamine, fluoxetine, ondansetron, colchicine, UDCA (ursodeoxycholic acid), OCA (obeticholic acid), ciclosporin, nalmefene, modafinil, rituximab, lactulose, rifaximin, propranolol, furosemide, methotrexate; or any combination thereof.

C#C[C@]1(O)CC[C@@]2(C)C(CC[C@@H]3[C@@H]2CC[C@]2(C)/C(=N/O)CC[C@@H]32)C1 (stereo partly drawn) [Golexanolone, 3α-ethynyl-3β-hydroxyandrostan-17-one oxime]
Change in CRT compared to baseline (36 patients with abnormal CRT (<1.9) at baseline, 10 mg BID oral with Standard of Care, Day 10, N = 8): 0.3504 | Change in CRT compared to baseline (36 patients with abnormal CRT (<1.9) at baseline, 10 mg BID oral with Standard of Care, Day 21, N = 8): 0.4166 | Change in CRT compared to baseline (36 patients with abnormal CRT (<1.9) at baseline, 40 mg BID oral with Standard of Care, Day 10, N = 10): 0.3035 | Change in CRT compared to baseline (36 patients with abnormal CRT (<1.9) at baseline, 40 mg BID oral with Standard of Care, Day 21, N = 10): 0.4276 | Change in CRT compared to baseline (36 patients with abnormal CRT (<1.9) at baseline, 80 mg BID oral with Standard of Care, Day 10, N = 9): 0.5109 | Change in CRT compared to baseline (36 patients with abnormal CRT (<1.9) at baseline, 80 mg BID oral with Standard of Care, Day 21, N = 9): 0.5219 | Change in CRT compared to baseline (all 45 patients with abnormal (<1.9) or normal CRT at baseline, 10 mg BID oral with Standard of Care, Day 10, N = 10): 0.2762 | Change in CRT compared to baseline (all 45 patients with abnormal (<1.9) or normal CRT at baseline, 10 mg BID oral with Standard of Care, Day 21, N = 10): 0.2792 | Change in CRT compared to baseline (all 45 patients with abnormal (<1.9) or normal CRT at baseline, 40 mg BID oral with Standard of Care, Day 10, N = 10): 0.3035 | Change in CRT compared to baseline (all 45 patients with abnormal (<1.9) or normal CRT at baseline, 40 mg BID oral with Standard of Care, Day 21, N = 10): 0.4276 | Change in CRT compared to baseline (all 45 patients with abnormal (<1.9) or normal CRT at baseline, 80 mg BID oral with Standard of Care, Day 10, N = 13): 0.4593 | Change in CRT compared to baseline (all 45 patients with abnormal (<1.9) or normal CRT at baseline, 80 mg BID oral with Standard of Care, Day 21, N = 13): 0.3505
